Reference: PubChem BioAssay (NCI)
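A five-concentration, 48-hour dose response in 96-well plates underlies each endpoint, interpolated linearly between surrounding concentrations. TGI is the concentration that stops growth completely.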

Columns and labels:
Assay in all cases: inhibition of tumour cell growth, NCI panel, 48 h
HCT-15 colon = test system: HCT-15 colon
HL-60(TB) leukemia = test system: HL-60(TB) leukemia
786-0 renal = test system: 786-0 renal
HS 578T breast = test system: HS 578T breast
NCI-H522 lung = test system: NCI-H522 lung
BT-549 breast = test system: BT-549 breast
SNB-19 CNS = test system: SNB-19 CNS
KM12 colon = test system: KM12 colon
COLO 205 colon = test system: COLO 205 colon
SF-295 CNS = test system: SF-295 CNS
MDA-MB-231 breast = test system: MDA-MB-231 breast
MDA-N = test system: MDA-N
NCI-H226 lung = test system: NCI-H226 lung
A498 renal = test system: A498 renal
SN12C renal = test system: SN12C renal
MALME-3M melanoma = test system: MALME-3M melanoma
OVCAR-4 ovarian = test system: OVCAR-4 ovarian
UACC-62 melanoma = test system: UACC-62 melanoma
RXF 393 renal = test system: RXF 393 renal
MDA-MB-435 = test system: MDA-MB-435
SK-OV-3 ovarian = test system: SK-OV-3 ovarian
UO-31 renal = test system: UO-31 renal
SF-268 CNS = test system: SF-268 CNS
CCRF-CEM leukemia = test system: CCRF-CEM leukemia
SK-MEL-5 melanoma = test system: SK-MEL-5 melanoma
MCF7 breast = test system: MCF7 breast
LOX IMVI melanoma = test system: LOX IMVI melanoma
MOLT-4 leukemia = test system: MOLT-4 leukemia
SK-MEL-28 melanoma = test system: SK-MEL-28 melanoma
SW-620 colon = test system: SW-620 colon
EKVX NSCLC = test system: EKVX NSCLC
NCI/ADR-RES ovarian = test system: NCI/ADR-RES ovarian
CAKI-1 renal = test system: CAKI-1 renal
SK-MEL-2 melanoma = test system: SK-MEL-2 melanoma
K-562 leukemia = test system: K-562 leukemia
PC-3 prostate = test system: PC-3 prostate
A549 NSCLC = test system: A549 NSCLC
U251 CNS = test system: U251 CNS
T-47D breast = test system: T-47D breast
SF-539 CNS = test system: SF-539 CNS
HOP-62 NSCLC = test system: HOP-62 NSCLC
SNB-75 CNS = test system: SNB-75 CNS
IGROV1 ovarian = test system: IGROV1 ovarian
DU-145 prostate = test system: DU-145 prostate
OVCAR-5 ovarian = test system: OVCAR-5 ovarian
HT29 colon = test system: HT29 colon
ACHN renal = test system: ACHN renal
OVCAR-8 ovarian = test system: OVCAR-8 ovarian
HOP-92 NSCLC = test system: HOP-92 NSCLC
NCI-H23 lung = test system: NCI-H23 lung
HCT-116 colon = test system: HCT-116 colon
TK-10 renal = test system: TK-10 renal
UACC-257 melanoma = test system: UACC-257 melanoma
M14 melanoma = test system: M14 melanoma
HCC-2998 colon = test system: HCC-2998 colon
SR leukemia = test system: SR leukemia
OVCAR-3 ovarian = test system: OVCAR-3 ovarian
NCI-H460 lung = test system: NCI-H460 lung
LXFL 529 NSCLC = test system: LXFL 529 NSCLC
DMS 273 small cell lung = test system: DMS 273 small cell lung
M19-MEL melanoma = test system: M19-MEL melanoma
DLD-1 colon = test system: DLD-1 colon
KM20L2 colon = test system: KM20L2 colon

Work on `CCCCCCCC/C=C\CCCCCCC/C=C1\C[C@](/C=C/C(=O)OC)(CO)OC1=O` yielded a TGI (HCT-15 colon) of 8.22 µM, a TGI (HL-60(TB) leukemia) of 6.14 µM and a TGI (786-0 renal) of 3.61 µM. The TGI (HS 578T breast) was 4.69 µM, the TGI (NCI-H522 lung) was 8.61 µM and the TGI (BT-549 breast) was 7.15 µM. The TGI (SNB-19 CNS) was 16 µM, the TGI (KM12 colon) was 14.2 µM and the TGI (COLO 205 colon) was 5.02 µM. It also gave a TGI (SF-295 CNS) of 14.1 µM, a TGI (MDA-MB-231 breast) of 6.6 µM and a TGI (MDA-N) of 2.27 µM. The TGI (NCI-H226 lung) was 6.66 µM, the TGI (A498 renal) was 22.7 µM and the TGI (SN12C renal) was 4.01 µM. The TGI (MALME-3M melanoma) was 2.86 µM, the TGI (OVCAR-4 ovarian) was 10.9 µM and the TGI (UACC-62 melanoma) was 20.1 µM. It also gave a TGI (RXF 393 renal) of 12.3 µM, a TGI (MDA-MB-435) of 3.22 µM and a TGI (SK-OV-3 ovarian) of 19.1 µM. For the same compound, the TGI (UO-31 renal) was 3.76 µM, the TGI (SF-268 CNS) was 4.4 µM and the TGI (CCRF-CEM leukemia) was greater than 23 µM. For the same compound, the TGI (SK-MEL-5 melanoma) was 16.8 µM, the TGI (MCF7 breast) was 14.7 µM and the TGI (LOX IMVI melanoma) was 3.02 µM. It also gave a TGI (MOLT-4 leukemia) of 10.6 µM, a TGI (SK-MEL-28 melanoma) of 3.38 µM and a TGI (SW-620 colon) of 3.78 µM. For the same compound, the TGI (EKVX NSCLC) was 24.7 µM, the TGI (NCI/ADR-RES ovarian) was 14.6 µM and the TGI (CAKI-1 renal) was 4.15 µM. The TGI (SK-MEL-2 melanoma) was 23.9 µM, the TGI (K-562 leukemia) was 15.3 µM and the TGI (PC-3 prostate) was 6.96 µM. For the same compound, the TGI (A549 NSCLC) was 17.8 µM, the TGI (U251 CNS) was 5.92 µM and the TGI (T-47D breast) was 13.1 µM. For the same compound, the TGI (SF-539 CNS) was 3.82 µM, the TGI (HOP-62 NSCLC) was 9.18 µM and the TGI (SNB-75 CNS) was 4.59 µM. For the same compound, the TGI (IGROV1 ovarian) was 6.29 µM, the TGI (DU-145 prostate) was 24.6 µM and the TGI (OVCAR-5 ovarian) was 19.5 µM. For the same compound, the TGI (HT29 colon) was 25.8 µM, the TGI (ACHN renal) was 7.9 µM and the TGI (OVCAR-8 ovarian) was 8.5 µM. The TGI (HOP-92 NSCLC) was 21.1 µM, the TGI (NCI-H23 lung) was 16.1 µM and the TGI (HCT-116 colon) was 6.26 µM. It also gave a TGI (TK-10 renal) of 8 µM, a TGI (UACC-257 melanoma) of 26.6 µM and a TGI (M14 melanoma) of 4.34 µM. The TGI (HCC-2998 colon) was 13.8 µM, the TGI (SR leukemia) was greater than 23.5 µM and the TGI (OVCAR-3 ovarian) was 16.6 µM. It also gave a TGI (NCI-H460 lung) of 20.2 µM.
In the case of `Cc1ccc(C(N)=O)cc1N=NN(C)C`, the TGI (HCT-15 colon) is reported as greater than 100 µM, the TGI (786-0 renal) is reported as greater than 100 µM and the TGI (NCI-H522 lung) is reported as greater than 100 µM. It also gave a TGI (SNB-19 CNS) greater than 100 µM, a TGI (KM12 colon) greater than 100 µM and a TGI (COLO 205 colon) greater than 100 µM. For the same compound, the TGI (SF-295 CNS) was greater than 100 µM, the TGI (LXFL 529 NSCLC) was greater than 100 µM and the TGI (SN12C renal) was greater than 100 µM. For the same compound, the TGI (OVCAR-4 ovarian) was greater than 100 µM, the TGI (UACC-62 melanoma) was greater than 100 µM and the TGI (SK-OV-3 ovarian) was greater than 100 µM. For the same compound, the TGI (UO-31 renal) was greater than 100 µM, the TGI (SF-268 CNS) was greater than 100 µM and the TGI (SK-MEL-5 melanoma) was greater than 100 µM. For the same compound, the TGI (LOX IMVI melanoma) was greater than 100 µM, the TGI (SK-MEL-28 melanoma) was greater than 100 µM and the TGI (SW-620 colon) was greater than 100 µM. It also gave a TGI (EKVX NSCLC) greater than 100 µM, a TGI (CAKI-1 renal) greater than 100 µM and a TGI (SK-MEL-2 melanoma) greater than 100 µM. The TGI (A549 NSCLC) was greater than 100 µM, the TGI (U251 CNS) was greater than 100 µM and the TGI (DMS 273 small cell lung) was greater than 100 µM. For the same compound, the TGI (M19-MEL melanoma) was greater than 100 µM, the TGI (HOP-62 NSCLC) was greater than 100 µM and the TGI (IGROV1 ovarian) was greater than 100 µM. For the same compound, the TGI (HT29 colon) was greater than 100 µM, the TGI (ACHN renal) was greater than 100 µM and the TGI (OVCAR-8 ovarian) was greater than 100 µM. The TGI (HOP-92 NSCLC) was greater than 100 µM, the TGI (DLD-1 colon) was greater than 100 µM and the TGI (NCI-H23 lung) was greater than 100 µM. It also gave a TGI (TK-10 renal) greater than 100 µM, a TGI (UACC-257 melanoma) greater than 100 µM and a TGI (M14 melanoma) greater than 100 µM. The TGI (HCC-2998 colon) was greater than 100 µM, the TGI (OVCAR-3 ovarian) was greater than 100 µM and the TGI (NCI-H460 lung) was greater than 100 µM. It also gave a TGI (KM20L2 colon) greater than 100 µM.
